In ChEMBL document CHEMBL4507319 (2021):

Assays:
[1] = target: Sigma intracellular receptor 2 (Homo sapiens, UniProt Q5BJF2); assay: GPCRScan assay: inhibition of Sigma 2; parameters: radioligand conc. used [nm] 5.0, parental cells HEKT
[2] = target: T1, 5'-AMP-activated protein kinase catalytic subunit alpha-1 (Homo sapiens, UniProt Q13131); assay: Cellular mechanistic pACC assay using IMR-32 neuroblastoma cells; format: cell-based
[3] = target: T1, 5'-AMP-activated protein kinase catalytic subunit alpha-1; assay: Cellular mechanistic pACC assay using Colo-320 cells; format: cell-based
[4] = target: AP2-associated protein kinase 1 (Homo sapiens) (UniProt Q2M2I8); conditions: Compound concentration 1000.0 nM
[5] = target: Casein kinase I isoform gamma-1 (Homo sapiens) (UniProt Q9HCP0); conditions: Compound concentration 1000.0 nM
[6] = target: Serine/threonine-protein kinase MRCK gamma (Homo sapiens) (UniProt Q6DT37); conditions: Compound concentration 1000.0 nM
Sequence of Serine/threonine-protein kinase MRCK gamma (Homo sapiens) (Q6DT37 whole entry): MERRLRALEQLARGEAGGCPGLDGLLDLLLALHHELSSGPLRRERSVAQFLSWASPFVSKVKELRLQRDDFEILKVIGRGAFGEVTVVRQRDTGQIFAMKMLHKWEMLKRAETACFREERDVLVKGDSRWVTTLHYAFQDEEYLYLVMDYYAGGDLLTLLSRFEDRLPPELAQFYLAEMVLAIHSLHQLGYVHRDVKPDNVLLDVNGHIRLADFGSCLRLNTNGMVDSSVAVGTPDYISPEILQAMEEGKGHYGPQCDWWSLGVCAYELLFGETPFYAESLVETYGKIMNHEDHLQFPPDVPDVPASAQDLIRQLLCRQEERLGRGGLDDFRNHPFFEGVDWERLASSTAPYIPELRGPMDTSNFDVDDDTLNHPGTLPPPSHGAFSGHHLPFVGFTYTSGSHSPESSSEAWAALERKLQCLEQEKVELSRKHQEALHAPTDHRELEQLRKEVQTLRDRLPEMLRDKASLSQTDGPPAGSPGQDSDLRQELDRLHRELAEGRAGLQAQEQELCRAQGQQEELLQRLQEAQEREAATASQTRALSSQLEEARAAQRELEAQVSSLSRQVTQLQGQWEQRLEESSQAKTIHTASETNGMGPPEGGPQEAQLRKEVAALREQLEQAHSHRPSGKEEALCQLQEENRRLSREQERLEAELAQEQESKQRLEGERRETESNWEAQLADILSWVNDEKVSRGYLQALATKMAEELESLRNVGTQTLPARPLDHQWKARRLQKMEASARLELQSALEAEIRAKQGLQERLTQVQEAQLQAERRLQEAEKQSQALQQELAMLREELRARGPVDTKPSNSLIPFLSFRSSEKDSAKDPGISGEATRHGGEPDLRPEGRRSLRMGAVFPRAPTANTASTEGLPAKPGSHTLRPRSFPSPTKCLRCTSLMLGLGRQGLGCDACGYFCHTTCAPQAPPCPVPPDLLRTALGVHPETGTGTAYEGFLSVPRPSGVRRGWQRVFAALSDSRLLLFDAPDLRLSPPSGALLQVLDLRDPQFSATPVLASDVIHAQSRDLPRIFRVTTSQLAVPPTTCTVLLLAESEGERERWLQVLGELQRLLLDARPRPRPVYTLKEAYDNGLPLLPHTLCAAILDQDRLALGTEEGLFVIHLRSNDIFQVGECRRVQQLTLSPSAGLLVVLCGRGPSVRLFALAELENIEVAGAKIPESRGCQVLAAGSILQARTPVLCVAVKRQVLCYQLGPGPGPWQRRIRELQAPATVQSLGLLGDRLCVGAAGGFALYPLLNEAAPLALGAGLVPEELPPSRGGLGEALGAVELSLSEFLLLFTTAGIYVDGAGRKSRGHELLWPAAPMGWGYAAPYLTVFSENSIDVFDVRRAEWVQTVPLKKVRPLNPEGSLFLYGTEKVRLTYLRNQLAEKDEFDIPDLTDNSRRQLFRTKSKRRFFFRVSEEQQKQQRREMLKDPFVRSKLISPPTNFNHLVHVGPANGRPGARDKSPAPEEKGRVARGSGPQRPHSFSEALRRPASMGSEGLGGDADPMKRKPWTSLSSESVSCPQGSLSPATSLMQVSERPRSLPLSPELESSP

[7] = tested on: Epidermal growth factor receptor (Homo sapiens), P00533 [UNDEFINED MUTATION]; conditions: Compound concentration 1000.0 nM
[8] = target: Ephrin type-A receptor 6 (Homo sapiens) (UniProt Q9UF33); conditions: Compound concentration 1000.0 nM
Sequence of Ephrin type-A receptor 6 (Homo sapiens) (Q9UF33 whole entry): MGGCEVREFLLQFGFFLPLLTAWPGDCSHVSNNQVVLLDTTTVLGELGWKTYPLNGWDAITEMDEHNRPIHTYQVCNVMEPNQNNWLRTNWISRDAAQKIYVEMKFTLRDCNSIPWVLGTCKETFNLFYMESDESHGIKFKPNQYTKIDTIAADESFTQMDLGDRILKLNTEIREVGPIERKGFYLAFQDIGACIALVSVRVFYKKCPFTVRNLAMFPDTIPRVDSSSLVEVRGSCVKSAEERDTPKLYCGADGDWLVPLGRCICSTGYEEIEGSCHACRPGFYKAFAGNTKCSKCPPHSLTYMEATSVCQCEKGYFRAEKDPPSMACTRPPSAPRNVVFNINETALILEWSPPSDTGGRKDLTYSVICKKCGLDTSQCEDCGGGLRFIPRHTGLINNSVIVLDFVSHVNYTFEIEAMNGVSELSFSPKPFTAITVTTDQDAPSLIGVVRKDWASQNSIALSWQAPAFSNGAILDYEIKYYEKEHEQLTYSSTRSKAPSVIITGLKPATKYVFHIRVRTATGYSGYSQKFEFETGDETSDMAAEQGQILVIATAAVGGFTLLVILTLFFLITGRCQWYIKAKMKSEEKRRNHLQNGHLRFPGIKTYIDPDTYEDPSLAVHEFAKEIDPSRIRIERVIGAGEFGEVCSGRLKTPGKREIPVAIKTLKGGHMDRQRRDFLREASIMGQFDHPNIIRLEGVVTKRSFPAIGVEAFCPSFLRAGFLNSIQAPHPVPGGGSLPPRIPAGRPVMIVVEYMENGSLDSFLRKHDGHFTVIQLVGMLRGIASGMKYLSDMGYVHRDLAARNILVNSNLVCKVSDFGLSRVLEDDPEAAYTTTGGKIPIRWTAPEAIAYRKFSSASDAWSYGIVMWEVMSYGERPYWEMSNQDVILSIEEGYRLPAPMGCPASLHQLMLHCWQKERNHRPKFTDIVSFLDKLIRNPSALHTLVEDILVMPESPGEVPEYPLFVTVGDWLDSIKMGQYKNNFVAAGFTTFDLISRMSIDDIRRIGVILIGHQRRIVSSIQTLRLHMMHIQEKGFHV

[9] = target: Ephrin type-A receptor 7 (Homo sapiens) (UniProt Q15375); conditions: Compound concentration 1000.0 nM
[10] = target: T2, Ephrin type-A receptor 8 (Homo sapiens) (UniProt P29322); conditions: Compound concentration 1000.0 nM
T2 sequence (whole entry): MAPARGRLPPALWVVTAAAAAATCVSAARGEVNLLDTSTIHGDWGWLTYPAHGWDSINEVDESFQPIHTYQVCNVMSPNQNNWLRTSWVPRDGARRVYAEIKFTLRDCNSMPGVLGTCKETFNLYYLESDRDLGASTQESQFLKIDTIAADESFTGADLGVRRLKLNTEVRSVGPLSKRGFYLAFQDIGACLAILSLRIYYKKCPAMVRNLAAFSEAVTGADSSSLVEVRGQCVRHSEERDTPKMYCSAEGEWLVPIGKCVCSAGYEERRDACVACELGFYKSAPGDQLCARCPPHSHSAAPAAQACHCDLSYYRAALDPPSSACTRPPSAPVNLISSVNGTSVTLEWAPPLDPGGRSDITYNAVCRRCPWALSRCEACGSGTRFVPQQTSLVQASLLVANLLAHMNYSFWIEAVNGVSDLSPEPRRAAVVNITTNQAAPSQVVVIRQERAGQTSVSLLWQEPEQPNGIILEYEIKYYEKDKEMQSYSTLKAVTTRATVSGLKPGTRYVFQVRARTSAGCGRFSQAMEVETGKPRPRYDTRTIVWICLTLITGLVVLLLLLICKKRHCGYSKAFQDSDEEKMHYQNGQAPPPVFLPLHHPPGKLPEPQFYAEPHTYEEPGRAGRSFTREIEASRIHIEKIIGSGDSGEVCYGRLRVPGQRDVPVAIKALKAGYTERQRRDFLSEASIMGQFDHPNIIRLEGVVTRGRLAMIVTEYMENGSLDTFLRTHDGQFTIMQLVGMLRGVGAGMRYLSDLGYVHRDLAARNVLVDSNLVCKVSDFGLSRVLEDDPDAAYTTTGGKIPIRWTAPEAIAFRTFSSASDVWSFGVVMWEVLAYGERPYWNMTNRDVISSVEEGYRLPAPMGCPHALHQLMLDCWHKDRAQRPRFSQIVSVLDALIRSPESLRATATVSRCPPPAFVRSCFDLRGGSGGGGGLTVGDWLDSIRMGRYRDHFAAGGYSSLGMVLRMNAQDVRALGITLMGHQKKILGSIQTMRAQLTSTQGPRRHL

[11] = tested on: Receptor-type tyrosine-protein kinase FLT3 (Homo sapiens), P36888 [D835H]; conditions: Compound concentration 1000.0 nM
[12] = tested on: Mast/stem cell growth factor receptor Kit (Homo sapiens), P10721 [D816V]; conditions: Compound concentration 1000.0 nM
[13] = target: Phosphorylase b kinase regulatory subunit alpha, liver isoform (Homo sapiens) (UniProt P46019); conditions: Compound concentration 1000.0 nM
[14] = target: T3, TGF-beta receptor type-1 (Homo sapiens) (UniProt P36897); conditions: Compound concentration 1000.0 nM
T3 sequence (whole entry): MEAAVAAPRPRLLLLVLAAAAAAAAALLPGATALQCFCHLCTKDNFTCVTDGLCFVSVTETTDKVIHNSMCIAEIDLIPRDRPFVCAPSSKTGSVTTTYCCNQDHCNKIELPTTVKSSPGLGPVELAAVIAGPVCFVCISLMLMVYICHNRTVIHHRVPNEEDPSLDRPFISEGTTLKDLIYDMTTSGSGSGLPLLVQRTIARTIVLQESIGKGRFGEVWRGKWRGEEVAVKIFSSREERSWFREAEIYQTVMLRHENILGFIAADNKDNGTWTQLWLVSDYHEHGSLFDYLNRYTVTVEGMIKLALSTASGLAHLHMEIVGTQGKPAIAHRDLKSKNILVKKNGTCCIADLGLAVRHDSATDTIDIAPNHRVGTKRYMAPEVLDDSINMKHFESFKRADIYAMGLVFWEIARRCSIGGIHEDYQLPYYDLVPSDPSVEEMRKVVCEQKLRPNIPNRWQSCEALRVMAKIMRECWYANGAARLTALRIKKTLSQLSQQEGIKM

[15] = target: High affinity nerve growth factor receptor (Homo sapiens) (UniProt P04629); conditions: Compound concentration 1000.0 nM
Sequence of High affinity nerve growth factor receptor (Homo sapiens) (P04629 33-796 limits assumed): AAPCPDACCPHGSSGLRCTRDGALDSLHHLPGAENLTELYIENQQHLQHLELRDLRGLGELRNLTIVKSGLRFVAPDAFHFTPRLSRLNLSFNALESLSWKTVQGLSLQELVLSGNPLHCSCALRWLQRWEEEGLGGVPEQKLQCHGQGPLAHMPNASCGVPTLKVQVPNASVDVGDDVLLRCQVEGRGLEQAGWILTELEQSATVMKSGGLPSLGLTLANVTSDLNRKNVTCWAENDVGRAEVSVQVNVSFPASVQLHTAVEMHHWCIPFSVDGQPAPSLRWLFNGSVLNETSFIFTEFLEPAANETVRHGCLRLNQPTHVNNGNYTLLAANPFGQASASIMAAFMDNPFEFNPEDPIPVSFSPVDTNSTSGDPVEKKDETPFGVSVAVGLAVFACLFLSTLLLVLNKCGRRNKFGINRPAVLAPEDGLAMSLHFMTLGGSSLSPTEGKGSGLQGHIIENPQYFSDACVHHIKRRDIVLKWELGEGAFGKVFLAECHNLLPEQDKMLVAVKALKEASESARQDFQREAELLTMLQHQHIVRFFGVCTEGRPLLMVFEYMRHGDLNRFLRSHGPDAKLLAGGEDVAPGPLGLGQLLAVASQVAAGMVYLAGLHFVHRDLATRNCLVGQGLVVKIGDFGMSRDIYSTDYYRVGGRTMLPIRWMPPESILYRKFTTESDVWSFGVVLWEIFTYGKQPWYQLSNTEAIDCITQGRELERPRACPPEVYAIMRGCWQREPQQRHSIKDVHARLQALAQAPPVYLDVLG

[16] = target: T4, Testis-specific serine/threonine-protein kinase 1 (Homo sapiens) (UniProt Q9BXA7); conditions: Compound concentration 1000.0 nM
T4 sequence (whole entry): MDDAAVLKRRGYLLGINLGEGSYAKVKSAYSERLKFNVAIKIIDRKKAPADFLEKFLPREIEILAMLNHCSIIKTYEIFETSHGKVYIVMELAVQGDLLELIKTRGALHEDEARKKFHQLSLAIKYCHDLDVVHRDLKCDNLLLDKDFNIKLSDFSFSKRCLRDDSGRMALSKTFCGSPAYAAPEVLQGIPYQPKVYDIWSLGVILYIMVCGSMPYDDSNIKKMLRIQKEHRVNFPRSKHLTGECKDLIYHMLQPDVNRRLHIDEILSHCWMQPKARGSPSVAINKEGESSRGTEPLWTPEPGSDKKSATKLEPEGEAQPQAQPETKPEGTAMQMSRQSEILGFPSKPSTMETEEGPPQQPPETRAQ

[17] = target: 5-hydroxytryptamine receptor 5A (Homo sapiens) (UniProt P47898); conditions: Compound concentration 10.0 uM
Sequence of 5-hydroxytryptamine receptor 5A (Homo sapiens) (P47898 whole entry): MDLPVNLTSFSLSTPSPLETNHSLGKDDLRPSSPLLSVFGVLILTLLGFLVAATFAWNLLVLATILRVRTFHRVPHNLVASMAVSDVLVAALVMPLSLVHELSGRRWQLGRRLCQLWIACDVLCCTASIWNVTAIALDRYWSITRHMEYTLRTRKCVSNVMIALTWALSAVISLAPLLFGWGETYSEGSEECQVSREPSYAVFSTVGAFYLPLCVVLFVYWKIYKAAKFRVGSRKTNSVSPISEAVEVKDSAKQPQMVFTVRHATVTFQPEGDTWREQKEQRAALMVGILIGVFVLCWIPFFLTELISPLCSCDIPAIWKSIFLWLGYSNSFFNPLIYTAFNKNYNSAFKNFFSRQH

[18] = target: 5-hydroxytryptamine receptor 7 (Homo sapiens) (UniProt P34969); conditions: Compound concentration 10.0 uM
[19] = target: D(4) dopamine receptor (Homo sapiens) (UniProt P21917); conditions: Compound concentration 10.0 uM
Sequence of D(4) dopamine receptor (Homo sapiens) (P21917 whole entry): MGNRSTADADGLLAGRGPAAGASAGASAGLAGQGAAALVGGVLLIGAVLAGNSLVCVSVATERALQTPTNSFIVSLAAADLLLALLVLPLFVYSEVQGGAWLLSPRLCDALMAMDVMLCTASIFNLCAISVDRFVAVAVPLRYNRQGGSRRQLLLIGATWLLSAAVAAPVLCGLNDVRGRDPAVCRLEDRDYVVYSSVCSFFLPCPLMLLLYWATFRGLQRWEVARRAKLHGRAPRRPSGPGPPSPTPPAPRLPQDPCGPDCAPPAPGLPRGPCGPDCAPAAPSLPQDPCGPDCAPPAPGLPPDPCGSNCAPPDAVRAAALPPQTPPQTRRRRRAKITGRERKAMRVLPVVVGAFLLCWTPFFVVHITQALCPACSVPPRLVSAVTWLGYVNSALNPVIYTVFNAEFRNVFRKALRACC

[20] = target: Muscarinic acetylcholine receptor M5 (Homo sapiens) (UniProt P08912); conditions: Compound concentration 10.0 uM

T1 sequence (Q13131 whole entry): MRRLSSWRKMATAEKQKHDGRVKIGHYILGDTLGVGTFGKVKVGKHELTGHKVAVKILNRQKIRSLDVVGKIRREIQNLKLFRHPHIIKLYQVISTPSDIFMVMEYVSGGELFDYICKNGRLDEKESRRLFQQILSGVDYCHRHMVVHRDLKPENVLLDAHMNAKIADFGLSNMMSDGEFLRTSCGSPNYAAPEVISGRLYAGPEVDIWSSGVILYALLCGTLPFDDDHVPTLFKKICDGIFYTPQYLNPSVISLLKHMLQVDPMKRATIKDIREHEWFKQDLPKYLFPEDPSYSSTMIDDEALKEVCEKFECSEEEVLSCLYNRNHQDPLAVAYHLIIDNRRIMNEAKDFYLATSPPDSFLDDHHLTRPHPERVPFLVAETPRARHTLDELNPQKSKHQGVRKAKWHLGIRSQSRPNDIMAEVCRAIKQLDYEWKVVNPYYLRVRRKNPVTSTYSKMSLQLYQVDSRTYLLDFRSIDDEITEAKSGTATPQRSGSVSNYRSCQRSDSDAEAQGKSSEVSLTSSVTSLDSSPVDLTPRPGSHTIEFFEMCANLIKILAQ
Sequence of Sigma intracellular receptor 2 (Q5BJF2 whole entry): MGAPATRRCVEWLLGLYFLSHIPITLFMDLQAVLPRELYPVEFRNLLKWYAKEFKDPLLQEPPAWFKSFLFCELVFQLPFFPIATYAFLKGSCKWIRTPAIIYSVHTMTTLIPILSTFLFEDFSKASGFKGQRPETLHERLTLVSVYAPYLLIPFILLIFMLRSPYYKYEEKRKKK

Row | SMILES | Ki [1] | IC50 [2] | IC50 [3] | residual activity [4] | residual activity [5] | residual activity [6] | residual activity [7] | residual activity [8] | residual activity [9] | residual activity [10] | residual activity [11] | residual activity [12] | residual activity [13] | residual activity [14] | residual activity [15] | residual activity [16] | inhibition [17] | inhibition [18] | inhibition [19] | inhibition [20]
1 | CCc1ccccc1C(=O)Nc1n[nH]c2c(C)c(F)c(C3C(C#N)=C(C)N(C)C(C)=C3C#N)cc12 [BAY-3827] | 2840 nM | 150 nM | 390 nM | 81% | 95% | 93% | 52% | 57% | 81% | 79% | 16% | 55% | 81% | 58% | 97% | 95% | 19.9% | 13.9% | -0.18% | 17.9%
2 | CC1=C(C#N)C(c2ccc3c(c2)c(NC(=O)c2ccccc2C)nn3C)C(C#N)=C(C)N1 [BAY-974] | 4470 nM | > 30000 nM (not active) | > 30000 nM (not active) | 90% | 100% | 92% | 88% | 89% | 100% | 100% | 99% | 85% | 89% | 100% | 77% | 100% | 0.04% | 6.72% | 0.21% | 6.82%
